Experimental data from ChEMBL document CHEMBL1201862, “PubChem BioAssay data set” (2004).
Activity calls are given as the source filed them.

Experiments:
[1] = NIH-3T3 fibroblast cytotoxicity, dose response, cytotoxicity control, cell-based, fluorescence, Alamar Blue, secondary assay (AID 2327); format: functional;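 further: NIH-3T3 mouse fibroblasts cultured with fluconazole at 8 µg/mL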
BJ [2] = assay: BJ-TERT fibroblast viability loss – cell-based, RAS-independent, luminescence, dose response (AID 1933); format: functional; conditions: Homo sapiens
[3] = target: Voltage-gated inwardly rectifying potassium channel KCNH2 (Homo sapiens, UniProt Q12809); conditions: Potency;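 further: confirmatory quantitative high-throughput screen measuring inhibition of hERG channel activity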
Chain of Voltage-gated inwardly rectifying potassium channel KCNH2 (Q12809 whole entry): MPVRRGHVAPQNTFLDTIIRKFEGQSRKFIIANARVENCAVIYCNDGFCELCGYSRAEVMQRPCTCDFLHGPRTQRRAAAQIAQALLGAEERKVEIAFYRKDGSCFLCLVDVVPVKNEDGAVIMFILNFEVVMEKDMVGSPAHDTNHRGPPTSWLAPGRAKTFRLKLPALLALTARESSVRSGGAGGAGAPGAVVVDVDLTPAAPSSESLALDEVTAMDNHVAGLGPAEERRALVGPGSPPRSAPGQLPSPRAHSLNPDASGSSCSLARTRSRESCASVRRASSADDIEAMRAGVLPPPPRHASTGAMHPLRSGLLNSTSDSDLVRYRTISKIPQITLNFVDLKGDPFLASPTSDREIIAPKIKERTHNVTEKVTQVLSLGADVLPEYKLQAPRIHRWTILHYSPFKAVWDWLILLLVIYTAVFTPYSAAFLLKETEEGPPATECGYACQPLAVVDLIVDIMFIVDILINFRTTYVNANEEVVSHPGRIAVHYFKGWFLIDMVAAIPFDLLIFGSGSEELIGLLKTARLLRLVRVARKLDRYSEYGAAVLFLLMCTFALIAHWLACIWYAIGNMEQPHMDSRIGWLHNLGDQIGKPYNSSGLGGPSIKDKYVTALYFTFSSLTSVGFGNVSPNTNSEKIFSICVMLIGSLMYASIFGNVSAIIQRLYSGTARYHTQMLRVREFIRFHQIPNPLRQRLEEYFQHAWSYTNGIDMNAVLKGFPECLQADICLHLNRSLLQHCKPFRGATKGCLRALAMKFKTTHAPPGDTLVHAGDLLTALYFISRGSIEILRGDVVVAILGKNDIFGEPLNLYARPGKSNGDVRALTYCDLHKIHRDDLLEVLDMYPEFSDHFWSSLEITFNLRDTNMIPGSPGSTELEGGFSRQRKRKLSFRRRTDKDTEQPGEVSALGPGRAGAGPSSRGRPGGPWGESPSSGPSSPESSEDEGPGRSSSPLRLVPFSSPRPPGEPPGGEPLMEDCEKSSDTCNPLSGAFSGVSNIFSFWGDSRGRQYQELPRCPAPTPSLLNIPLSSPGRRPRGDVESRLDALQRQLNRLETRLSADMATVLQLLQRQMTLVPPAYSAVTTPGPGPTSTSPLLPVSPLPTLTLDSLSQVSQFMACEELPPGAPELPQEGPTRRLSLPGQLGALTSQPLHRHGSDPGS

[4] = DRD fibroblast viability loss – cell-based, non-viral oncogenic, luminescence, dose response (AID 1934); format: functional; conditions: Homo sapiens
[5] = target: 5-hydroxytryptamine receptor 2A (Mus musculus, UniProt P35363); format: functional, cell-based;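 further: CHO-K1 cells with tagged receptor and beta-arrestin; agonist potency measured as compound-induced activation of the receptor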
Chain of 5-hydroxytryptamine receptor 2A (P35363 whole entry): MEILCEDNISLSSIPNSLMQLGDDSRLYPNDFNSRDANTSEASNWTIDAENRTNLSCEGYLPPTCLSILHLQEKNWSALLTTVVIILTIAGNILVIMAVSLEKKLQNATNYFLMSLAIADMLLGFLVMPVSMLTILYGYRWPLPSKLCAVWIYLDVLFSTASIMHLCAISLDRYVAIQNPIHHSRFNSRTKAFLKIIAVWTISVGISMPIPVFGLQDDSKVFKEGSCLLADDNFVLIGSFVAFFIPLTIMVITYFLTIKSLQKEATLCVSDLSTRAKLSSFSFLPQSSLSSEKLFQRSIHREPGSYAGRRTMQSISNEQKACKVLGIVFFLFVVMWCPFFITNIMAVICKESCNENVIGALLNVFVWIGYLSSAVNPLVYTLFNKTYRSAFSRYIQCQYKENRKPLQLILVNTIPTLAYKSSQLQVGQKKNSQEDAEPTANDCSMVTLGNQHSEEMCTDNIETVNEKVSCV

BJ [6] = assay: cells; format: functional, cell-based; conditions: Homo sapiens
BJ [7] = assay: BJ-TERT-LT-ST fibroblast viability loss – cell-based, RAS-independent, luminescence, dose response (AID 1935); format: functional; conditions: Homo sapiens;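 further: BJ fibroblasts immortalized with TERT plus LT and ST oncogenes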
[8] = fluconazole-exposed Candida albicans growth modulators – fluorescence, retest, confirmation (AID 2467); format: functional, cell-based
[9] = target: T1, Ubiquitin-conjugating enzyme E2 N (Homo sapiens, UniProt P61088); format: functional;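 further: Dose-response confirmation in a TR-FRET assay detecting UBC13-driven polyubiquitin chain formation, inhibition measured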
T1 sequence (P61088 whole entry): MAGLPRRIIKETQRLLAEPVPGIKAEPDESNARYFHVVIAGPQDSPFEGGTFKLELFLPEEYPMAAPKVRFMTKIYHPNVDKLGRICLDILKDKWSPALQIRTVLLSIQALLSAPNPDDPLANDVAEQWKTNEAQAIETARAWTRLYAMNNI

Mu-type opioid receptor = Mu-type opioid receptor (Homo sapiens, UniProt P35372); format: functional, cell-based;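 further: U2OS cells with beta-arrestin recruitment to OPRM1 by beta-gal complementation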
Chain of Mu-type opioid receptor (P35372 whole entry): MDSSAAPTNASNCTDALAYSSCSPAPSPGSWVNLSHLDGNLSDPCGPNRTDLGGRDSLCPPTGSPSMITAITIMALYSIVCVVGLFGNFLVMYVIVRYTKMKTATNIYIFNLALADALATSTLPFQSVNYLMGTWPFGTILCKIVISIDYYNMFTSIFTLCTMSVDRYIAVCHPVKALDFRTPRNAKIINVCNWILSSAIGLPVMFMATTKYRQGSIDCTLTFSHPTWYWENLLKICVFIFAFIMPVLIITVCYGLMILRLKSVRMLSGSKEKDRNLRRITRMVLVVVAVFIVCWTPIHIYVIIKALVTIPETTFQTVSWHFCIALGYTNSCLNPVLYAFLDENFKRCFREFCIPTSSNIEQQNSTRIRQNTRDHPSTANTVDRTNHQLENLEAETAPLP

[10] = target: T2, Microphthalmia-associated transcription factor (Homo sapiens, UniProt O75030); assay: reducers of TRPM1 reporter luminescence, concentration series – cell-based, SK-MEL-5, cherry-picked, set 3, MITF inhibitor project, dose response (AID 493073); format: functional;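 further: SK-MEL-5 melanoma cells with luciferase driven by the MITF target TRPM1 promoter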
T2 sequence (O75030 whole entry): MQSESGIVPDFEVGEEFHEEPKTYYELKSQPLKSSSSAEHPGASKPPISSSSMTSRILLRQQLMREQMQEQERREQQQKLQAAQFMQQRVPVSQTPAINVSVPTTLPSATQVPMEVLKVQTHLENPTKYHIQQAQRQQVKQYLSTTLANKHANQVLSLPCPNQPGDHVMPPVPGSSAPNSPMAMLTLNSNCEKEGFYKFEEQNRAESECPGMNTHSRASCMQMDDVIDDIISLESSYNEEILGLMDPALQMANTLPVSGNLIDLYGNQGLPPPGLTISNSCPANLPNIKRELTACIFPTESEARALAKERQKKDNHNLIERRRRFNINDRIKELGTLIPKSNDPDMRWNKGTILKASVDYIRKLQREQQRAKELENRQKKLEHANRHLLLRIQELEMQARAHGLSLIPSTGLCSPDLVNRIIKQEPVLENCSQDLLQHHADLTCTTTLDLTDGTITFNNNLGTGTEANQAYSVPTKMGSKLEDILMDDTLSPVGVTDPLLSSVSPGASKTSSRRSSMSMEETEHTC

[11] = target: T3, DNA repair protein RAD52 homolog (Homo sapiens, UniProt P43351); format: functional, biochemical
T3 sequence (P43351 whole entry): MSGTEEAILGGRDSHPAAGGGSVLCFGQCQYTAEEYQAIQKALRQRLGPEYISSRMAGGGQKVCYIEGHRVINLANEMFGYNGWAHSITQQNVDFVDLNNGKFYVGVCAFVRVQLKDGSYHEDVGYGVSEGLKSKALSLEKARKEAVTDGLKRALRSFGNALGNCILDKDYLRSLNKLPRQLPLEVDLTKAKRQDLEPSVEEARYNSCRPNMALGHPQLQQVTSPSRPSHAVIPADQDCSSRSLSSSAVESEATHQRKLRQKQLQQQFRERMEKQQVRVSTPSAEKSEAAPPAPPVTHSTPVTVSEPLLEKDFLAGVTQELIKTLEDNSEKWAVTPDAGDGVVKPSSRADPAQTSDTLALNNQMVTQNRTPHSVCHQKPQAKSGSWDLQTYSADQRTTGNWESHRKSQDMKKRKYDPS

A-375 = assay: MITF: Counter assay: A375 proliferation Measured in Cell-Based System Using Plate Reader - 2084-03_Inhibitor_Dose_DryPowder_Activity. [Related pubchem assays (depositor defined):AID488944]; format: functional; conditions: Homo sapiens
[12] = THP-1 cell cytotoxicity, dose response, cytotoxicity control for non-replicating M. tuberculosis project (AID 489025); format: functional
[13] = Vero E6 cell cytotoxicity, dose response, cytotoxicity control for non-replicating M. tuberculosis project, secondary assay (AID 492998); format: functional, VeroE6; conditions: Vero C1008
Beta-galactosidase = Beta-galactosidase (Escherichia coli, UniProt Q8VNN2); assay: detection-enzyme interference by beta-gal modulators – biochemical, E. coli enzyme, set 3, artefact control for CCR6 antagonist project, dose response (AID 504712); format: functional
Chain of Beta-galactosidase (Q8VNN2 whole entry): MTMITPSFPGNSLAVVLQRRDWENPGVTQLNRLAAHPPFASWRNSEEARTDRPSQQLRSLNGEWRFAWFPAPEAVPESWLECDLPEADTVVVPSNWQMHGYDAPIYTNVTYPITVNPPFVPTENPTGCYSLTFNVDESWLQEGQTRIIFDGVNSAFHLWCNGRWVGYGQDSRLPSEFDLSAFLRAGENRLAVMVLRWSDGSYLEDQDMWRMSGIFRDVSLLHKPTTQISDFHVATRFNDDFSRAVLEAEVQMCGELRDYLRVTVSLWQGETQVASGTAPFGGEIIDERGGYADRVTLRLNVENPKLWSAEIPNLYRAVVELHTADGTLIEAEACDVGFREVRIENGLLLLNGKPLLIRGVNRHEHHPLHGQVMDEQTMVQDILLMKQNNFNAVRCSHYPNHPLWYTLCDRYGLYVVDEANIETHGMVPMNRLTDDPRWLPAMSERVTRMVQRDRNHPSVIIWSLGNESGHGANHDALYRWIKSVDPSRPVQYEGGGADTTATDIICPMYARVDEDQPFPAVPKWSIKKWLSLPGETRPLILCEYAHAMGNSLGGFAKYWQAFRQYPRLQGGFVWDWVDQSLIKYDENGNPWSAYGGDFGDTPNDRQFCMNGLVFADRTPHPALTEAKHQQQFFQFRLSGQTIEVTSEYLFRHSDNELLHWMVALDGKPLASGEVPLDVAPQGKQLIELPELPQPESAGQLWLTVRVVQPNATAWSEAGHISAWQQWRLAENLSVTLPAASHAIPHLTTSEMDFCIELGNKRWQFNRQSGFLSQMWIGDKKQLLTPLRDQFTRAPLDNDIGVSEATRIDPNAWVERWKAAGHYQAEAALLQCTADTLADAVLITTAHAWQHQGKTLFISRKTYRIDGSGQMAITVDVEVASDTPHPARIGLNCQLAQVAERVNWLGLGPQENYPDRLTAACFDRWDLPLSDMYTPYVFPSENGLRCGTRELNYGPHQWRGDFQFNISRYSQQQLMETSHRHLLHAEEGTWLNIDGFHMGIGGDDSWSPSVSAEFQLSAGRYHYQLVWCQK

cells = format: functional
[14] = target: Heat shock protein HSP 90-alpha (Homo sapiens, UniProt P07900); format: functional, organism-based
Apelin receptor = Apelin receptor (Homo sapiens, UniProt P35414); assay: apelin receptor antagonists, arrestin read-out – cell-based, luminescent, enzyme-fragment complementation, selectivity assay for CCR6 antagonist project, SAR follow-up (AID 588359); format: functional
Chain of Apelin receptor (P35414 whole entry, the tested form may be a part): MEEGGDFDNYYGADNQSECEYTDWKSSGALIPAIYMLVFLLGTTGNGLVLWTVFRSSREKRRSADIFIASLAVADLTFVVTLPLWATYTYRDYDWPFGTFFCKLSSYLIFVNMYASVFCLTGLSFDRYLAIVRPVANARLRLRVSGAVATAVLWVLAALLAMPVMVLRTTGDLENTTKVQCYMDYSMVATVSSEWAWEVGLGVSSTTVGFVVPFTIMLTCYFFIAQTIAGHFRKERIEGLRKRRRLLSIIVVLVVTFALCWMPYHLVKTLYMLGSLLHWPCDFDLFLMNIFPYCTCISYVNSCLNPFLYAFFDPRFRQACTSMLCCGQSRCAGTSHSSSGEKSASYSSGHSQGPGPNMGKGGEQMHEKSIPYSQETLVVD

[15] = NIH3T3 cell viability loss – ATP luminescence, mouse fibroblasts, counter-screen, dose response (AID 2010); format: functional, cell-based;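 further: cells exposed to compound for about 90 hours before reading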
[16] = target: T4, Replicative DNA helicase DnaB (Mycobacterium tuberculosis, UniProt P9WMR3); assay: DnaB intein splicing inhibitors, dose response, biochemical, cell-free fluorescence (AID 449749); format: functional
T4 sequence (P9WMR3 whole entry): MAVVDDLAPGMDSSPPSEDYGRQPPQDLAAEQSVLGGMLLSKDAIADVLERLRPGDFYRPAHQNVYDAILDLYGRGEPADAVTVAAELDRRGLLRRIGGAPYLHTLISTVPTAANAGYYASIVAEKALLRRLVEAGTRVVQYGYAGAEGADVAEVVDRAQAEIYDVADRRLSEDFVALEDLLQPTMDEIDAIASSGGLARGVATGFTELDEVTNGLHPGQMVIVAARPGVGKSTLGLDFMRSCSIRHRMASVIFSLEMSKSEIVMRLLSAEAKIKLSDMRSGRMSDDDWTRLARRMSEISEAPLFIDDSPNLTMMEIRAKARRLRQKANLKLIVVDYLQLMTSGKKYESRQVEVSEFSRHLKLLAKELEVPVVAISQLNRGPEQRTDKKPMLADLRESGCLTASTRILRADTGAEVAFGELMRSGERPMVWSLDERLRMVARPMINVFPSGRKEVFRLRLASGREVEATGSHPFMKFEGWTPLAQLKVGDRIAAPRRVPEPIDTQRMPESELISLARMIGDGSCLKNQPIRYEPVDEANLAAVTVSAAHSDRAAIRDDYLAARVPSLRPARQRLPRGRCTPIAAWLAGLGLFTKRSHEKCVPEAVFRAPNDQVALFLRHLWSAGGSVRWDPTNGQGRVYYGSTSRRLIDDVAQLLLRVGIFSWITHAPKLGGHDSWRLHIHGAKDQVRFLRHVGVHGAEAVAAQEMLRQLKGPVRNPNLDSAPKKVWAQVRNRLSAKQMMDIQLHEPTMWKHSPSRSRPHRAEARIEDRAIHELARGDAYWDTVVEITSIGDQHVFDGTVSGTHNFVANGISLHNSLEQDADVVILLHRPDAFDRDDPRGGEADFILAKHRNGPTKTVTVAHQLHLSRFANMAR

[17] = target: Beta-2 adrenergic receptor (Homo sapiens, UniProt P07550); assay: ADRB2 activation measured by internalization – cell-based, FAP fluorogen, flow cytometry, cherry pick 1, dose response (AID 588763); format: functional
Chain of Beta-2 adrenergic receptor (P07550 whole entry): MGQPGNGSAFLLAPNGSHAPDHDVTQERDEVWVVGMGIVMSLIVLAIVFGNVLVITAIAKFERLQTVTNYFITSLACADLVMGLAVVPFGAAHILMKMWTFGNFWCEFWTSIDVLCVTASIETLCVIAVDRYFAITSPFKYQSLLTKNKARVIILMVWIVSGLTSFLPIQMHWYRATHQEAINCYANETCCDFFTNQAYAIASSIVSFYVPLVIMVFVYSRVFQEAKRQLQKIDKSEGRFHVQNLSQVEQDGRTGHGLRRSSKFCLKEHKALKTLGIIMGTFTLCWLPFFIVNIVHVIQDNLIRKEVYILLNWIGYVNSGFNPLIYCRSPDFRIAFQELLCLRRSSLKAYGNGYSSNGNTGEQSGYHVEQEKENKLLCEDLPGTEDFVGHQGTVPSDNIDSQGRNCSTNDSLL

Protein RecA = target: T5, Protein RecA (Mycobacterium tuberculosis, UniProt P9WHJ3); assay: Fluorescence Cell-Free Homogeneous Dose Retest to Identify Inhibitors of RecA-Intein Splicing Activity. [Related pubchem assays (depositor defined):AID2097, AID2223, AID489010, AID492950]; format: functional
T5 sequence (P9WHJ3 whole entry): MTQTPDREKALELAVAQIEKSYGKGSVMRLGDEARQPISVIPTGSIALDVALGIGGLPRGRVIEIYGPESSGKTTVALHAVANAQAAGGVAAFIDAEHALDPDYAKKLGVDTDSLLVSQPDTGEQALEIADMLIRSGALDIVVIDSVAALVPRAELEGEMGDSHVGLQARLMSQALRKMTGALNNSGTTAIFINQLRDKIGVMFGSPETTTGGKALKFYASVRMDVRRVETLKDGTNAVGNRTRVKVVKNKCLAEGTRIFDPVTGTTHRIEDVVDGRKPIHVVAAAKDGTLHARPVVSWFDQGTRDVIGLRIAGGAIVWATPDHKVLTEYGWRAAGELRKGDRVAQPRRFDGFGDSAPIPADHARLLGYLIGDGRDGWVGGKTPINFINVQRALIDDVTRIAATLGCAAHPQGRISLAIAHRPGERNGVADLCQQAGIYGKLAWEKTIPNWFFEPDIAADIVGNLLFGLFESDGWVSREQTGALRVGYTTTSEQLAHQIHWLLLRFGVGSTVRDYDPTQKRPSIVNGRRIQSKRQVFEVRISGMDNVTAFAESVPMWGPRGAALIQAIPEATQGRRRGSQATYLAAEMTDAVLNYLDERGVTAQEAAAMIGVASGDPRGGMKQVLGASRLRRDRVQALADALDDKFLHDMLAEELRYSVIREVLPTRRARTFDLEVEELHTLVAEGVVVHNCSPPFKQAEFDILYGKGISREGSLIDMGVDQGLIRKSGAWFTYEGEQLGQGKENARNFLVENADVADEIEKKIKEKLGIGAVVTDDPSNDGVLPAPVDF

[18] = Trypanosoma cruzi growth suppression in host cells – NIH3T3 host cells, beta-gal luminescence, confirmation (AID 2044); format: functional, cell-based;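 further: intracellular parasites grown in NIH/3T3 mouse fibroblasts as host cells; luminescent beta-galactosidase reporter signal from transgenic T. cruzi replicating inside host cells; inhibitors lower the luminescence signal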
[19] = HepG2 cell cytotoxicity, dose response, cytotoxicity control for non-replicating M. tuberculosis project (AID 489018); format: functional; conditions: Mycobacterium tuberculosis
Escherichia coli = assay: microbe, parasite or virus in culture
[20] = NIH/3T3 cell viability loss – mouse embryonic fibroblasts, dry powder, set 2, cytotoxicity control, dose response (AID 493247); format: functional, cell-based; conditions: Fibroblast
[21] = T. cruzi infection blockers in NIH3T3 cells – beta-gal luminescence, NIH3T3 host cells, confirmation (AID 2630); format: functional, cell-based; conditions: Mus musculus
Trypanosoma cruzi = assay: anti-trypanosomal activity in host cells – cell-based, plate reader, dry powder, set 3, dose response (AID 493197); format: functional
[22] = target: Dual specificity protein phosphatase 3 (Homo sapiens, UniProt P51452); assay: SAR VHR1 Fluorescent Assay for In Vitro dose response studies Set 3. [Related pubchem assays (depositor defined):AID1654, AID1661, AID1878]; format: functional
Chain of Dual specificity protein phosphatase 3 (P51452 whole entry): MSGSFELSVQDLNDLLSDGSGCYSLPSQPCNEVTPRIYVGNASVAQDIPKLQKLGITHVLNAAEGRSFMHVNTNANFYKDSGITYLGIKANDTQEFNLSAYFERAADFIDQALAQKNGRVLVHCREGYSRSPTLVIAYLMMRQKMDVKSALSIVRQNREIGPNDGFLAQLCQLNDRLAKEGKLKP

NC[C@@H]1O[C@H](C23CC4CC(CC(C4)C2)C3)Cc2c1ccc(O)c2O
EC50 [1]: > 150 µM (inactive) | EC50 (BJ [2]): 10.3 µM (inconclusive) | AC50 [3]: 22.4 µM (inconclusive) | EC50 [4]: 13.1 µM (active) | EC50 [5]: 1.2 µM (active) | EC50 (BJ [6]): > 150 µM (not active) | EC50 (BJ [7]): 13.7 µM (inconclusive) | EC50 [8]: 4.44 µM (active) | IC50 [9]: > 20 µM (inactive) | EC50 (Mu-type opioid receptor): 92.4 µM (inactive)

CN1CCC(N(C)C(=O)/C=C/c2cn(-c3ccccc3)nc2-c2cccs2)CC1
AC50 [10]: 9.82 µM (active) | AC50 [11]: 12.2 µM (active) | AC50 (A-375): 30.5 µM (active) | IC50 [9]: > 20 µM (inactive)

O=[N+]([O-])c1ccc(S(=O)(=O)c2cccc(C(F)(F)F)c2)nc1
EC50 (BJ [2]): 2.55 µM (inconclusive) | CC50 [12]: 28.8 µM (active) | EC50 [4]: 6.52 µM (active) | CC50 [13]: 14.8 µM (active) | IC50 (Beta-galactosidase): > 66.6 µM (inactive) | EC50 (BJ [6]): 12.1 µM (inconclusive) | EC50 (BJ [7]): 10.8 µM (inconclusive) | IC50 (cells): 3.47 µM (active) | AC50 [14]: 1.84 µM (active) | IC50 (Apelin receptor): 18.8 µM (active) | EC50 [15]: 2.06 µM (active) | AC50 [16]: > 380 µM (inactive) | EC50 [17]: 7.62 µM (inactive) | EC50 (Protein RecA): 14.2 µM (active) | EC50 [18]: 0.913 µM (active) | CC50 [19]: > 20 µM (active)

COC(=O)c1cnc(NNS(=O)(=O)c2ccc(C(F)(F)F)cc2)nc1C(F)(F)F
AC50 (Escherichia coli): > 380 µM (inactive)

CN(Cc1ccccc1)C(=O)C1CCCN(Cc2ccccc2C(F)(F)F)C1 (stereo not given)
AC50 [20]: 63.3 µM (active) | EC50 [21]: 4.64 µM (active) | AC50 (Trypanosoma cruzi): 15.9 µM (active)

CCOc1cccc2sc(NC(=O)c3ccc(OC)cc3)nc12
IC50 [22]: 51.7 µM (active)
